Source: patent US20100041089A1, “IMPROVED METHOD FOR DETECTING CHEMICAL […]” (priority 2006, published 2010)

Tested on: yeast genes (expressed mRNA)
Experiment: DNA chip measurement of expressed mRNA of yeast genes after culture with a toxic chemical substance
Type: cell-based, Saccharomyces cerevisiae S288C
Experimental: Yeast (Saccharomyces cerevisiae S288C (a SUC2mal mel gap2 CUP1)) were cultured at 25° C. on YPD medium (yeast extract 1%, polypeptone 2%, glucose 2%). One of toxic chemical substances was added to the cell at logarithmic growth phase, and the cell was further cultured for two hours. Cell was cultured without any chemical substance in the same condition, and was used as a control. Concentrations of the chemical substances were defined to inhibit the growth of the yeast but not lead to death.
After the completion of cultivation, the culture was centrifuged to collect the cells. To the cells, sodium acetate buffer (50 mM sodium acetate, 10 mM EDTA, 1% SDS) was added, and the mixture was shaken at 65° C. for five minutes, followed by returning to room temperature, and obtaining the supernatant, which procedure was repeated two times. To the supernatant, ½ amount of a solution of phenol/chloroform (1:1) was added, and the mixture was centrifuged to give a supernatant, an equal amount of chloroform was added, and the mixture was centrifuged to give a supernatant. To the supernatant, an equal amount of isopropanol containing 0.3 M sodium acetate was added, and the mixture was allowed to stand at room temperature for 30 minutes, after which the mixture was centrifuged to give sediment of the whole RNAs. Seventy % ethanol was added to the sediment, and the mixture was again centrifuged to give sediment, which was then dried and dissolved in water. mRNA was isolated from the whole RNAs as followings. In view of the fact that a poly A chain is attached to the 3′ terminus of mRNA, a polynucleotide having a poly T structure which was immobilized on the surface of latex beads was used to trap the mRNA, and then the mRNA was washed and eluted with spine column (Oligotex-dT30<Super>mRNA Purification Kit, Takara). Reverse transcription of the mRNA was conducted with a reverse transcriptase (Super Script II Reverse Transcriptase; catalogue No. 18064-014, GibcoBRL) using fluorescence-labeled nucleotides to give cDNAs that were introduced with Cy3-dUTP or Cy5-dUTP during the reverse transcription.
The labeled cDNAs were dissolved in TE buffer (10 mM Tris-HCl/1 mM EDTA, pH 8.0), and the solution was dropped on the DNA chip containing the whole genes of yeast (DNA Chip Research Inc. Japan) so that the cDNAs were hybridized on the DNA chip at 65° C. for over 12 hours. The fluoresces intensity of the DNA chip was read with a scanner, and the ratio relative to the fluorescence intensity resulting from the absence of chemical substance was estimated as the following, which is shown in Tables 1 to 9.
In the Tables, “Intensity” indicated in the rightmost column is a value of the level of expressed mRNA of each gene in control cells as divided by the average level of the expressions of the whole genes. A gene of which mRNA level is lower in control, and is higher in cases of addition of chemical substance, is especially useful in the detection of toxic substances.
Here, when a ratio of an amount of mRNA expressed in the presence of the chemical substance to an amount of mRNA expressed in the absence of the chemical substance is two or more, then it is considered significant.

C[S+](C)[O-] [(15), Dimethyl sulfoxide]
The level of expressed mRNA in the presence of chemical substance/The level of expressed mRNA in the absence of chemical substance, yeast gene YDL067C (gene YDL067C (mitochondria-located protein gene), yeast cultured two hours with chemical substance, DNA chip fluorescence ratio to control): 0.7 | The level of expressed mRNA in the presence of chemical substance/The level of expressed mRNA in the absence of chemical substance, yeast gene YDR079W (gene YDR079W (mitochondria-located protein gene), yeast cultured two hours with chemical substance, DNA chip fluorescence ratio to control): 0.6 | The level of expressed mRNA in the presence of chemical substance/The level of expressed mRNA in the absence of chemical substance, yeast gene YGR062C (gene YGR062C (mitochondria-located protein gene), yeast cultured two hours with chemical substance, DNA chip fluorescence ratio to control): 0.5 | The level of expressed mRNA in the presence of chemical substance/The level of expressed mRNA in the absence of chemical substance, yeast gene YJL096W (gene YJL096W (mitochondria-located protein gene), yeast cultured two hours with chemical substance, DNA chip fluorescence ratio to control): 1.0 | The level of expressed mRNA in the presence of chemical substance/The level of expressed mRNA in the absence of chemical substance, yeast gene YJL180C (gene YJL180C (mitochondria-located protein gene), yeast cultured two hours with chemical substance, DNA chip fluorescence ratio to control): 0.6 | level of expressed mRNA in the presence of chemical substance / level in the absence of chemical substance (yeast gene YAL018C, cultured two hours with the chemical substance): 6.9 | level of expressed mRNA in the presence of chemical substance / level in the absence of chemical substance (yeast gene YAR047C, cultured two hours with the chemical substance): 0.5 | level of expressed mRNA in the presence of chemical substance / level in the absence of chemical substance (yeast gene YAR064W, cultured two hours with the chemical substance): 1.9 | level of expressed mRNA in the presence of chemical substance / level in the absence of chemical substance (yeast gene YBL044W, cultured two hours with the chemical substance): 0.7 | level of expressed mRNA in the presence of chemical substance / level in the absence of chemical substance (yeast gene YBR012C, cultured two hours with the chemical substance): 1.1 | The level of expressed mRNA in the presence of chemical substance/The level of expressed mRNA in the absence of chemical substance (yeast gene YBR047W, cultured two hours with substance): 0.8 | level of expressed mRNA in the presence of chemical substance / level in the absence of chemical substance (yeast gene YBR066C, cultured two hours with the chemical substance): 0.4 | The level of expressed mRNA in the presence of chemical substance/The level of expressed mRNA in the absence of chemical substance (yeast gene YBR100W, cultured two hours with the chemical substance): 1.3 | level of expressed mRNA in the presence of chemical substance / level in the absence of chemical substance (yeast gene YBR124W, cultured two hours with the chemical substance): 1.0 | level of expressed mRNA in the presence of chemical substance / level in the absence of chemical substance (yeast gene YBR162C, cultured two hours with the chemical substance): 1.9 | The level of expressed mRNA in the presence of chemical substance/The level of expressed mRNA in the absence of chemical substance (yeast gene YBR273C, cultured two hours with substance): 0.8 | level of expressed mRNA in the presence of chemical substance / level in the absence of chemical substance (yeast gene YBR287W, cultured two hours with the chemical substance): 1.3 | The level of expressed mRNA in the presence of chemical substance/The level of expressed mRNA in the absence of chemical substance (yeast gene YCL009C): 6.5 | The level of expressed mRNA in the presence of chemical substance/The level of expressed mRNA in the absence of chemical substance (yeast gene YCL040W, cultured for two hours with substance): 3.4 | The level of expressed mRNA in the presence of chemical substance/The level of expressed mRNA in the absence of chemical substance (yeast gene YCL049C, cultured two hours with substance): 1.4 | level of expressed mRNA in the presence of chemical substance / level in the absence of chemical substance (yeast gene YCL056C, cultured two hours with the chemical substance): 1.7 | level of expressed mRNA in the presence of chemical substance / level in the absence of chemical substance (yeast gene YCR007C, cultured two hours with the chemical substance): 0.8 | The level of expressed mRNA in the presence of chemical substance/The level of expressed mRNA in the absence of chemical substance (yeast gene YCR030C, cultured two hours with the chemical substance): 1.3 | The level of expressed mRNA in the presence of chemical substance/The level of expressed mRNA in the absence of chemical substance (yeast gene YCR082W, cultured two hours with substance): 1.6 | The level of expressed mRNA in the presence of chemical substance/The level of expressed mRNA in the absence of chemical substance (yeast gene YCR107W, cultured for two hours with substance): 4.8 | level of expressed mRNA in the presence of chemical substance / level in the absence of chemical substance (yeast gene YDL046W, cultured two hours with the chemical substance): 2.3 | The level of expressed mRNA in the presence of chemical substance/The level of expressed mRNA in the absence of chemical substance (yeast gene YDL110C, cultured two hours with substance): 1.3 | The level of expressed mRNA in the presence of chemical substance/The level of expressed mRNA in the absence of chemical substance (yeast gene YDL222C, cultured two hours with substance): 7.1 | The level of expressed mRNA in the presence of chemical substance/The level of expressed mRNA in the absence of chemical substance (yeast gene YDR031W, cultured two hours with substance): 0.8 | The level of expressed mRNA in the presence of chemical substance/The level of expressed mRNA in the absence of chemical substance (yeast gene YDR032C, cultured two hours with substance): 1.3 | level of expressed mRNA in the presence of chemical substance / level in the absence of chemical substance (yeast gene YDR090C, cultured two hours with the chemical substance): 1.1 | level of expressed mRNA in the presence of chemical substance / level in the absence of chemical substance (yeast gene YDR128W, cultured two hours with the chemical substance): 1.4 | level of expressed mRNA in the presence of chemical substance / level in the absence of chemical substance (yeast gene YDR133C, cultured two hours with the chemical substance): 0.6 | level of expressed mRNA in the presence of chemical substance / level in the absence of chemical substance (yeast gene YDR250C, cultured two hours with the chemical substance): 0.7 | level of expressed mRNA in the presence of chemical substance / level in the absence of chemical substance (yeast gene YDR278C, cultured two hours with the chemical substance): 0.7 | level of expressed mRNA in the presence of chemical substance / level in the absence of chemical substance (yeast gene YDR281C, cultured two hours with the chemical substance): 0.3 | level of expressed mRNA in the presence of chemical substance / level in the absence of chemical substance (yeast gene YDR366C, cultured two hours with the chemical substance): 1.4 | The level of expressed mRNA in the presence of chemical substance/The level of expressed mRNA in the absence of chemical substance (yeast gene YDR434W, cultured two hours with substance): 1.3 | The level of expressed mRNA in the presence of chemical substance/The level of expressed mRNA in the absence of chemical substance (yeast gene YDR476C, cultured two hours with substance): 2.2
